In test [1] the target is T1, uracil monophosphate synthetase (UMPS) overexpressed in HEK cells (Homo sapiens, UniProt P11172).
T1 construct: expressed in transfected cells; host or cells: HEK cells
T1 sequence (P11172 1-480): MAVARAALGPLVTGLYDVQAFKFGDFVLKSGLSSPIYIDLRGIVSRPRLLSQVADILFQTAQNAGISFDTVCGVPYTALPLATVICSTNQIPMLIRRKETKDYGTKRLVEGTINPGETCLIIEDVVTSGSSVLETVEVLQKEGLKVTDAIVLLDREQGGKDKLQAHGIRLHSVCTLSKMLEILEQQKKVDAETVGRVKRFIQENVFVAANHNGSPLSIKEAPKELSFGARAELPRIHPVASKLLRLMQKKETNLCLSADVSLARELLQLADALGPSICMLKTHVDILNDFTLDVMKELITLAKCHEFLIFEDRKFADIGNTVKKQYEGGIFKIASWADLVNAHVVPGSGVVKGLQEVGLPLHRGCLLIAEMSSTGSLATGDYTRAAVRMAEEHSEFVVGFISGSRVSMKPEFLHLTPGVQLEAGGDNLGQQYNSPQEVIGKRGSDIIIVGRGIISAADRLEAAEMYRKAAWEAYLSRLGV
As to the kind of experiment: RNA incorporation with overexpression of UMPS, dot blot. It counts as cell-based. The following applies: 1 mM, 24 hours, FIG. 12. How it is done: Analogs were incubated for 24 hours at 1 mM concentration in HEK cells. RNA was extracted and biotinylated using MTSEA-Biotin, followed by dot-blot analysis. Strep-HRP=Streptavidin conjugated Horseradish peroxidase. MeBI=methylene blue staining serving as loading control.

For the next test, the system named is mutants TgUPRT. As to the kind of experiment: Phosphoribosyltransferase activity with recombinant TgUPRT mutants. Format: biochemical, Toxoplasma gondii. The note with it: five recombinant TgUPRT mutants, FIG. 9A. How it is done:
Enzyme activity assay: The standard activity assay was performed by incubating 10 μL of free extract or 0.5 μg of pure His-tag enzyme with 1 mM Phosphoribosyl pyrophosphate (PRPP), 1 mM uracil, 5 mM MgCl2 in 50 mM PBS buffer pH 7.4 in a final volume of 80 μL. The reaction mixture was incubated at 37° C. for 2-5 min (300 rpm). Enzyme was inactivated by adding 80 μL of cold methanol in ice-bath and heating for 5 min at 100° C. After centrifugation at 9000×g for 5 min, samples were half-diluted with water and the NMP production was analysed by HPLC to quantitatively measure the reaction products as described below in the analytical methods. All determinations were carried out in triplicate assuming Michaelis-Menten conditions, and the maximum error was below 5%. In such conditions, one international activity unit (IU) was defined as the amount of enzyme producing 1 μmol/min of UMP under the assay conditions.
Substrate specificity studies Enzymatic synthesis of the different pyrimidine nucleoside monophosphate (NMP) derivatives was carried out by incubating 0.5 μg of pure His-tag enzyme with 1 mM PRPP, 1 mM pyrimidine base and 5 mM MgCl2 in 50 mM PBS buffer pH 7.4 (1.6-3.2% v/v DSMO). The experiments were performed according to the standard assay. Subsequently, the reaction mixture was processed as described above and the NMP production was analyzed by HPLC.
Analytical methods: The production of NMPs was quantitatively measured with an ACE EXCEL 5 μm CN-ES 250×4.6 mm equilibrated with 100% trimethyl ammonium acetate at a flow rate of 0.8 mL/min. Retention times for the reference bases and NMPs (hereafter abbreviated according to the recommendations of the IUPAC-IUB Commission on Biochemical Nomenclature) were as follows: uracil (Ura), 4.7 min; 5-azido uracil (5-AUra). […]
Following these exciting observations, a more quantitative approach to examined for differences between enzyme mutants and their enzyme kinetics with the analogs. […] Each purified enzyme was incubated with the different substrates and phosphoribosyltransferase activity was measured (FIG. 9A).

For a further test, the system named is (−)TgUPRT HEK cells. As to the kind of experiment: Background incorporation of uracil analogs into RNA, streptavidin-HRP dot blot. It counts as cell-based. The note with it: 1 mM, mimics in vivo applications, FIG. 4. Here is the method: (§1) Transfection, labeling of cellular RNA and RNA isolation: After 48h seeding, HEK293 cells were transfected with 2.5 μg of TgUPRT WT or mutant plasmids (pKN-CMV-TgUPRT-WT or -Mutt to Mut17) per 5 cm plate using JetPrime Transfection reagent (Polyplus Transfection, France). At 40h post-transfection, cells were incubated with a final concentration of 200 μM at <1% DMSO from 400 mM stock of uracil analogs (5EU, 5VU, 5AU) or 200 mM SAMU stock for 5 h. For time course study, HEK cells were treated with 200 μM uracil analogs for 0 h, 0.5, 1, 3, 5, 12 and 24 hours. For titrating uracil analog concentration experiments, HEK cells were treated with 0 (DMSO), 50, 100, 200, 500 μM or 1 mM uracil analog for 5h. Treated HEK cells were subjected to total RNA extraction using 1 mL Trizol Reagent (Invitrogen) following the manufacturer instructions.
(§2) Biotinylation via CuAAC and IEDDA: Cu-mediated Azide-Alkyne cycloaddition (CuAAC) click reactions were performed in 50 μL reaction at 22° C. on a shaker for 30 min with click reaction cocktail containing 15 μg of total RNA, 1 mM biotin alkyne or biotin azide, fresh 4.6 mM THPTA to a final concentration of 1 mM, and fresh 10.6 mM sodium ascorbate (NaAsc) at final concentration of 1.77 mM, and 12 mM CuSO4 at final concentration of 200 μM in biotinylation reaction buffer (10 mM TrisHCI, 1 mM EDTA, pH7.4). The biotinylated RNA was purified using RNA clean & Concentrator-5 kit (Zymo Research, Cat #R1013) according to the manufacturer instructions and eluted in 21 μL of nuclease free water.
(§3) Inverse electron demand [4+2] Diels-Alder cycloaddition (IEDDA) click reactions were performed in 50 μL at 37° C. or 22° C. (RT) for 3h on mixer at 500 rpm containing 10-15 μg of total RNA, 1 mM final concentration of biotin-benzyl tetrazine (Sigma Aldrich, Cat #793329-5MG) in nuclease free water. Clicked total RNA was purified using RNA clean & Concentrator-5 kit (Zymo Research, Cat #R1013) according to the manufacturer instructions, and RNA was eluted in 21 μL of nuclease free water.
HRP-streptavidin dot blot analysis: All gel reagents were from Bio-Rad. For dot blot analysis, 2 μg of clicked total RNA was applied onto Hybond-N+ membrane (GE Healthcare) as individual dots and UV-crosslinked (254 nm) to a membrane (Stratalinker UV crosslinker). Membranes were blocked in blocking buffer (0.12 M NaCl, 0.016 M Na2HPO4, 0.008 M NaH2PO4, 0.17 M SDS) and followed by incubation with high sensitivity streptavidin-HRP (Fisher Scientific, Cat #: P121130) at 1:5000 dilution in blocking buffer for 5 minutes. The membrane was washed twice in a Wash A buffer (1:10 dilution of blocking buffer) and twice in Wash B buffer (Tris-saline buffer). […]

The target in test [2] is T2, wild-type (WT) TgUPRT in HEK cells (Toxoplasma gondii, UniProt Q26998).
T2 construct: 6xHis; expressed in transfected cells; host or cells: HEK293 (HEK293T)
T2 sequence (Q26998 whole entry): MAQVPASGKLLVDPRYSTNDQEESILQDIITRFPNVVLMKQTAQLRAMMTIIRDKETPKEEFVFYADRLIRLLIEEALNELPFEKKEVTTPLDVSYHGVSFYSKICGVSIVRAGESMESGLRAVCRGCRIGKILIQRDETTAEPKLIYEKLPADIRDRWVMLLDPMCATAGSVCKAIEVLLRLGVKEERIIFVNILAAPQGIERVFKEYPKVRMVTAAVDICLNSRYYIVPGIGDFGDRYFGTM
Kind of test: In-cell RNA incorporation by wild-type TgUPRT, streptavidin dot blot. Format: cell-based. The following applies: wild-type TgUPRT active site. Here is the method: as §1, §2, §3
HRP-streptavidin dot blot analysis: All gel reagents were from Bio-Rad. […]

The next test concerns UPRT(+)-microglia brains. As to the kind of experiment: In vivo labeling of brain RNA in mice transplanted with UPRT-expressing human microglia, biotin dot blot. The following applies: IP close to 150 mg/kg, 24-48 hours, FIG. 14. How it is done:
5-vinyl-uracil (Alfa Aesar #4437903) was prepared in sterile conditions at 4 times the concentration in 100% DMSO, then diluted to 25% DMSO by adding corn oil to a final concentration of 500 mM. The mixture was heated to 37° C. for […] until homogenous. Mice are weighed before intraperitoneal injection (IP) injection to ensure close to 150 mg/kg are injected per treatment. For an (˜20 g) adult mouse typically 60-70 μl are IP injected per treatment. Mice are monitored for signs of distress. After 24-48 hours of treatment, mice were sacrificed and brains were immediately placed into 2 ml of RNAlater and left in 4° C. for 3-5 days. After removing brains from RNAlater, they were homogenized with RNAse-free 1.4 mm steel beads (Next Advance SSB14B-RNA) for 60 seconds and centrifuged at 4° C. for 5 min, maximum speed to separate the fatty layer. The bottom layer is collected, homogenized with 200 ul chloroform and centrifuged for 20 minutes, at 4° C. The aqueous layer is collected and 500 ul isopropanol added. After centrifugation for 30 minutes 4° C., the RNA pellet is washed in 70% Ethanol twice. After removing ethanol, the RNA pellet is resuspended in nuclease-free water and nanodrop to determine the concentration. From each sample, 15 μg of RNA was subjected in tetrazine-biotin ligation at 37° C., 500 RPM for 3 hours. The biotinylated RNA was purified with RNA Zymo Clean and Concentrator #5 and eluted with nuclease-free water. 2 μg of purified RNA was spotted onto a N+ Hybond membrane and UV-crosslinked at 254 nm (120,000 uJ). Membrane is blocked in blocking buffer (0.12 M NaCl, 0.016 M Na2HPO4, 0.008 M NaH2PO4, 0.17 M SDS) and followed by incubation with high sensitivity streptavidin-HRP (Fisher Scientific, Cat #: P121130) at 1:5000 dilution in blocking buffer for 5 minutes. The membrane was washed twice in a Wash A buffer (1:10 dilution of blocking buffer) and twice in Wash B buffer (Tris-saline buffer). It was then incubated for 1-5 min. in ECL Chemiluminescent Substrate (Fisher Scientific, Cat #: P132106) and imaged on a ChemiDoc MP imaging system (Bio-Rad). […]

Experimental findings from US20240117431A1, “STEM-CELL BASED BIOMARKER DISCOVERY” (THE REGENTS OF THE UNIVERSITY OF CALIFORNIA, priority 2020, published 2024) are described below.

The structures appear in SMILES notation. Entries after “also recorded” stand apart in the source; their conditions may differ.

As for `O=c1[nH]c(=S)ccn1[C@@H]1O[C@H](CO)[C@@H](O)[C@H]1O` [4-thiouridine, reference compound], the “incorporation into cellular RNA with UMPS overexpression” value in test [1] is reported as “incorporation”. As for `O=c1cc[nH]c(=O)[nH]1` [Uracil, uracil, reference compound], the “reactivity with the mutants (phosphoribosyltransferase activity)” value in the test with mutants TgUPRT was “reactivity of uracil for all five mutants was observed”. For `[N-]=[N+]=Nc1c[nH]c(=O)[nH]c1=O` [compound 4, 5-Azidopyrimidine-2,4(1H,3H)-dione], in the test with (−)TgUPRT HEK cells, the “incorporation into RNA at higher concentration” value is on record as “higher incorporation”.

Regarding `O=c1[nH]ccc(=S)[nH]1` [4-thiouracil, reference compound], the “incorporation into cellular RNA with UMPS overexpression” value in test [1] is on record as “higher amount”. Also, the “TgUPRT-dependent incorporation into cellular RNA” value in test [2] was “has the ability to be incorporated into cellular RNA”. Regarding `C=Cc1cn([C@@H]2O[C@H](CO)[C@@H](O)[C@H]2O)c(=O)[nH]c1=O` [5-vinyluridine, reference compound], in the test with UPRT(+)-microglia brains, the “incorporation into brain RNA, UPRT(+)-microglia transplanted” value is on record as “incorporated into brain RNA; also recorded: incorporation”.
